Experimental data: BindingDB's records for doi:10.1007/s00213-002-1073-7 (WestfÄLische Wilhelms-Universit&Auml, 2002)

Columns and labels:
[1] = molecular target: T1, Alpha-1A adrenergic receptor (Homo sapiens, UniProt P35348)
T1 sequence (P35348 whole entry): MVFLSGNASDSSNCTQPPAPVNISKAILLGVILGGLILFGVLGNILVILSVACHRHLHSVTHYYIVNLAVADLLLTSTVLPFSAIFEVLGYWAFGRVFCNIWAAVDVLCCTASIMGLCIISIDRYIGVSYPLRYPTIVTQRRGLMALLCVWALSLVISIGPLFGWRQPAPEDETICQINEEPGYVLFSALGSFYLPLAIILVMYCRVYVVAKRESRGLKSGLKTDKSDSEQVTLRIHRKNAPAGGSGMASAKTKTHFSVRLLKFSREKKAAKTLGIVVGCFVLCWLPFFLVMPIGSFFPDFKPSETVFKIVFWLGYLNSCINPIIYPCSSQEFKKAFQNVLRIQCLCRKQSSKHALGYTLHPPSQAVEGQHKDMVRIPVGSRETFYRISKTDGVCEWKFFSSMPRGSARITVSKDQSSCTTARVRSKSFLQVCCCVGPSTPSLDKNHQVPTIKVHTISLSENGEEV

Vasopressin V1b receptor = molecular target: T2, Vasopressin V1b receptor (Homo sapiens, UniProt P47901)
T2 sequence (P47901 whole entry): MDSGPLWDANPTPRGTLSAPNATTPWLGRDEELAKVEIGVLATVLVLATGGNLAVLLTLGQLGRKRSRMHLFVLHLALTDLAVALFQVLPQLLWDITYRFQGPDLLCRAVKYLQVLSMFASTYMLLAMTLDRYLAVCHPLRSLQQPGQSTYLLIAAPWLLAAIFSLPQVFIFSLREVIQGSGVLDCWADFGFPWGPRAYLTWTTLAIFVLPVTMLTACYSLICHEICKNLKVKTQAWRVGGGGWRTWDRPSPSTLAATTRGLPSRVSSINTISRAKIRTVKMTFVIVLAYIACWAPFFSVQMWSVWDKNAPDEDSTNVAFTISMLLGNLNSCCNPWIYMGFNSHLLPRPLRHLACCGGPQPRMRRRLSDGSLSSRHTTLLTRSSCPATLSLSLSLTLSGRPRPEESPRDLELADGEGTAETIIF

[2] = molecular target: 5-hydroxytryptamine receptor 7 (Homo sapiens, UniProt P34969)
[3] = molecular target: Glutamate receptor ionotropic, NMDA 1 (Rattus norvegicus, UniProt P35439)
Histamine H1 receptor = Histamine H1 receptor (Rattus norvegicus, UniProt P31390)
D(1A) dopamine receptor = D(1A) dopamine receptor (Homo sapiens, UniProt P21728)
[4] = molecular target: Sodium-dependent serotonin transporter (Homo sapiens, UniProt P31645)
Vasopressin V2 receptor = Vasopressin V2 receptor (Homo sapiens, UniProt P30518)
[5] = molecular target: Delta-type opioid receptor (Sus scrofa, UniProt P79291)
Mu-type opioid receptor = Mu-type opioid receptor (Homo sapiens, UniProt P35372)
[6] = molecular target: Gamma-aminobutyric acid receptor subunit alpha-1 (Rattus norvegicus, UniProt P62813)
[7] = molecular target: T3, 5-hydroxytryptamine receptor 2C (Rattus norvegicus, UniProt P08909)
T3 sequence (P08909 whole entry): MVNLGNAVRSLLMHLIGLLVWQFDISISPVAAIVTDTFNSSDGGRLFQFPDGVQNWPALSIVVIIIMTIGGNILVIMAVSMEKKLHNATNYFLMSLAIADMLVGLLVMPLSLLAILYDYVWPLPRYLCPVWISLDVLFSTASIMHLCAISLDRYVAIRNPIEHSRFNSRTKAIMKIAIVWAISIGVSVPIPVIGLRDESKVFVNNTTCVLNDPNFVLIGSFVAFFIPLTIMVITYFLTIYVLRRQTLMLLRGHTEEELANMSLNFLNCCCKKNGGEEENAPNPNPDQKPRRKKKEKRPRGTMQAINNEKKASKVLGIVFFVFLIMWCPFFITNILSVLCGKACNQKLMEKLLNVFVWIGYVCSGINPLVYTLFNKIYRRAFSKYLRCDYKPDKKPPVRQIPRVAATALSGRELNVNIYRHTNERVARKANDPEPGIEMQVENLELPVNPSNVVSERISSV

[8] = molecular target: Sodium-dependent noradrenaline transporter (Homo sapiens, UniProt P23975)
[9] = molecular target: T4, Alpha-2A adrenergic receptor (Homo sapiens, UniProt P08913)
T4 sequence (P08913 whole entry): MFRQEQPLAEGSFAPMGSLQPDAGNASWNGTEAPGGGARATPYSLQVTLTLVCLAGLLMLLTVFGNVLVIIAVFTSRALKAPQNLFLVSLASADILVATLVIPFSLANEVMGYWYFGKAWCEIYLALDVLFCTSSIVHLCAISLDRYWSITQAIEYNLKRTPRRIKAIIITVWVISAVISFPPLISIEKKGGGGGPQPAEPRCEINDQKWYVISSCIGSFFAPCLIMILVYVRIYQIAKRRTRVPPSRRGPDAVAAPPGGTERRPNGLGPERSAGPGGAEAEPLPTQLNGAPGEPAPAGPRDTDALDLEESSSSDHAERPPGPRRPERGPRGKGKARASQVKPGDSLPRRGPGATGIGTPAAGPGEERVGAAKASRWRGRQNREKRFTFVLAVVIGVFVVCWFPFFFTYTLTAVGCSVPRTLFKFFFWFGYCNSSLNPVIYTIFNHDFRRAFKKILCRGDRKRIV

[10] = molecular target: 5-hydroxytryptamine receptor 1B (Homo sapiens, UniProt P28222)
[11] = molecular target: 5-hydroxytryptamine receptor 2C (Homo sapiens, UniProt P28335)
[12] = molecular target: Delta-type opioid receptor (Homo sapiens, UniProt P41143)
Sequence of Delta-type opioid receptor (Homo sapiens, UniProt P41143) (P41143 whole entry): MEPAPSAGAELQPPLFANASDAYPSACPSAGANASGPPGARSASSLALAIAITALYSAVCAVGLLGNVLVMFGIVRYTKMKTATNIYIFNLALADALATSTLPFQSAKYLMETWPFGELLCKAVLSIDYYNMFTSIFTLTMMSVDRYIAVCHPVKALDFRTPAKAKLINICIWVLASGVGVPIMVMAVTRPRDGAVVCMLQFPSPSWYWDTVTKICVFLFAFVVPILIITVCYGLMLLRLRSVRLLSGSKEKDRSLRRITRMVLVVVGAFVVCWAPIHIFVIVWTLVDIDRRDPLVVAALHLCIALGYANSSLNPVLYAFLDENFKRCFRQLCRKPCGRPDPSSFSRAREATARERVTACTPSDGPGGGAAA

Sequence of Sodium-dependent noradrenaline transporter (P23975 whole entry): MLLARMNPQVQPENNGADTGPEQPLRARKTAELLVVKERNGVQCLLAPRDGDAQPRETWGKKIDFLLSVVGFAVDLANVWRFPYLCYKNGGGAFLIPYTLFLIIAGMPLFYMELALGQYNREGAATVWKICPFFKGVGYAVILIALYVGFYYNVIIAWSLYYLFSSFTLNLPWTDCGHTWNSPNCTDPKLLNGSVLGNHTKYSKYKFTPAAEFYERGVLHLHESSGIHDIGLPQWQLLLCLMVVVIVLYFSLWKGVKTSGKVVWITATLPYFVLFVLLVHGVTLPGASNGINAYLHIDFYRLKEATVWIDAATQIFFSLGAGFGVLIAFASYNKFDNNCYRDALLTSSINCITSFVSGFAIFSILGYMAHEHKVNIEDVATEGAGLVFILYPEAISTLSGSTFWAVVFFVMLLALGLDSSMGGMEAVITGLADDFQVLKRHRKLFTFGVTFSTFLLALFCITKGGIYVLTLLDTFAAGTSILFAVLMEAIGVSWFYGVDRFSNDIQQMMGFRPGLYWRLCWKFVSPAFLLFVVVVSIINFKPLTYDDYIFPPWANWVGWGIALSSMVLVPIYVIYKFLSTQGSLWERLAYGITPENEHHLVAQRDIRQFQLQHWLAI
Sequence of Vasopressin V2 receptor (P30518 whole entry): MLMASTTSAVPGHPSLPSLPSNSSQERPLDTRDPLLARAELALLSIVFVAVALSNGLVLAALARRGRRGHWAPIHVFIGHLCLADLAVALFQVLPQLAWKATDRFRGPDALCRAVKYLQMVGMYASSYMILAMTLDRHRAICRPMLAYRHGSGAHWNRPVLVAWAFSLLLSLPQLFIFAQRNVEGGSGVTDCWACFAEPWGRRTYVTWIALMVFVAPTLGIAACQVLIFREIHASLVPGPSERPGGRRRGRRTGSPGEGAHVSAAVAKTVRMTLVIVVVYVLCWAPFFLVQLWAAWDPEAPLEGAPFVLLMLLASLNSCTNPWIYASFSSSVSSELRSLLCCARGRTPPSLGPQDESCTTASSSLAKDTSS
Sequence of Delta-type opioid receptor (Sus scrofa, UniProt P79291) (P79291 whole entry): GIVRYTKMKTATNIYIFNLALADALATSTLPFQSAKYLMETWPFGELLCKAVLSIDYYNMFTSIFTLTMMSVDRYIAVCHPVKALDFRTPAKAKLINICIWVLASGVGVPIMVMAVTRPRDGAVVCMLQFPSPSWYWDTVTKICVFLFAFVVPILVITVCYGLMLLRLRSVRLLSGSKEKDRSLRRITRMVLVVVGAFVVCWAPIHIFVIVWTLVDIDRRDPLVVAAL
Sequence of Mu-type opioid receptor (P35372 whole entry): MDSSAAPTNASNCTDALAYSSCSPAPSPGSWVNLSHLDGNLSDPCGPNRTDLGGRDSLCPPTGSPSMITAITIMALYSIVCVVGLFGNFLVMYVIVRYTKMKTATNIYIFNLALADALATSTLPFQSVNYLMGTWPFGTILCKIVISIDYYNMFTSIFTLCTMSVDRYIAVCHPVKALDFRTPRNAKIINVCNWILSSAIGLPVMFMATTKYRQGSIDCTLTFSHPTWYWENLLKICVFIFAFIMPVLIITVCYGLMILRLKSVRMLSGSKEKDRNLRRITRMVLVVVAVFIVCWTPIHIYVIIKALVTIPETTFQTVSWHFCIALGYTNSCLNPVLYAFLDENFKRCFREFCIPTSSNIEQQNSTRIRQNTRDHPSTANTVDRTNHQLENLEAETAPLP
Sequence of Sodium-dependent serotonin transporter (P31645 whole entry): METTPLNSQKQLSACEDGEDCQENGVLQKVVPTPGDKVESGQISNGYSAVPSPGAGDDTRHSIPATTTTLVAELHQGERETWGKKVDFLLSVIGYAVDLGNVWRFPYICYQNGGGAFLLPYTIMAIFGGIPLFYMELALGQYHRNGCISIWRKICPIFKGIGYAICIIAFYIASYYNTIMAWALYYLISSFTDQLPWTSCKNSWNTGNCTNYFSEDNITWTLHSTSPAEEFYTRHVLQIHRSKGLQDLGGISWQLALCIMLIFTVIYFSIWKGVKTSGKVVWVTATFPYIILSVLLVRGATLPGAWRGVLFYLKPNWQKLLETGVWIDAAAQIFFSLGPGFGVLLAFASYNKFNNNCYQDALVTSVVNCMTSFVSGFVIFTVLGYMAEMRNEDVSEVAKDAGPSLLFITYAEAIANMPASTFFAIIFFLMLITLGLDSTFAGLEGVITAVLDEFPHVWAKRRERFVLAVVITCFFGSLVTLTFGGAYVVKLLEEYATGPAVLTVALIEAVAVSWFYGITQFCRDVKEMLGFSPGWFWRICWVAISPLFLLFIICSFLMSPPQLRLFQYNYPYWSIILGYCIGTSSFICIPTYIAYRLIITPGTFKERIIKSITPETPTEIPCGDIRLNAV
Sequence of 5-hydroxytryptamine receptor 7 (P34969 whole entry): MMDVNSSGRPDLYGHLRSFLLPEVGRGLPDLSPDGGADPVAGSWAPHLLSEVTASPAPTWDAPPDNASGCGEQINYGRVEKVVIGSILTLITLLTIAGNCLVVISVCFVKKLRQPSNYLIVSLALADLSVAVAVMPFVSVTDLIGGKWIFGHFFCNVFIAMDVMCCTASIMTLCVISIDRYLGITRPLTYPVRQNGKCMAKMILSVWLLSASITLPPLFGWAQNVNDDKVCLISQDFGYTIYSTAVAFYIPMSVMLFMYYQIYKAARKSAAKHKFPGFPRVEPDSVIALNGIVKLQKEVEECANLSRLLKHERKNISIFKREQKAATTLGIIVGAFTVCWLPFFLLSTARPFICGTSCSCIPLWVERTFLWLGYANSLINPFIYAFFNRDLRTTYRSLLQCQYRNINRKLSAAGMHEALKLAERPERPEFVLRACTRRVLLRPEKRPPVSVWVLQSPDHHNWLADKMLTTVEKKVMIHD
Sequence of Gamma-aminobutyric acid receptor subunit alpha-1 (P62813 whole entry): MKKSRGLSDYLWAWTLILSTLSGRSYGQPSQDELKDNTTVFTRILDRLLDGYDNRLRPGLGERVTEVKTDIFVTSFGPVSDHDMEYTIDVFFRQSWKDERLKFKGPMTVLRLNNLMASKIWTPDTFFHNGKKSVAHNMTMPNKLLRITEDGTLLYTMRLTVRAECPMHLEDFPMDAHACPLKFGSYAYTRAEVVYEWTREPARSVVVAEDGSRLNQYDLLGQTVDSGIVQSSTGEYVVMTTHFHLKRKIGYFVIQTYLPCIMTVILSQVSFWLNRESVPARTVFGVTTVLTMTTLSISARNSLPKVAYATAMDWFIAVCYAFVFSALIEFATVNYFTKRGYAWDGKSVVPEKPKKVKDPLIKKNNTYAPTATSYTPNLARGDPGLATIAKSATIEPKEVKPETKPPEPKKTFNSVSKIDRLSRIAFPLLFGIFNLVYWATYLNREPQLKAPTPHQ
Sequence of D(1A) dopamine receptor (P21728 whole entry): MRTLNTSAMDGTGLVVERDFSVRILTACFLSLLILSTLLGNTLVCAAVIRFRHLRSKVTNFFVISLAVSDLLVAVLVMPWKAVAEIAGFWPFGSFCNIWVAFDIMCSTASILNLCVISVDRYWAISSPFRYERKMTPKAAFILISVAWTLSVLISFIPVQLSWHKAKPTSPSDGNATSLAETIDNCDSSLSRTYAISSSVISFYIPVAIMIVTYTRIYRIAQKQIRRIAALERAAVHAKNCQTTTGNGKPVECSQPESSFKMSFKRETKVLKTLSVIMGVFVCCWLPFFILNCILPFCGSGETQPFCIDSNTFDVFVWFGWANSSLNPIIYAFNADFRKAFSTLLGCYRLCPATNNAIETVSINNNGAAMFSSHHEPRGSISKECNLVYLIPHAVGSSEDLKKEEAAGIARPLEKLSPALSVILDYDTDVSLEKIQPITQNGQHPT
Sequence of Histamine H1 receptor (P31390 whole entry): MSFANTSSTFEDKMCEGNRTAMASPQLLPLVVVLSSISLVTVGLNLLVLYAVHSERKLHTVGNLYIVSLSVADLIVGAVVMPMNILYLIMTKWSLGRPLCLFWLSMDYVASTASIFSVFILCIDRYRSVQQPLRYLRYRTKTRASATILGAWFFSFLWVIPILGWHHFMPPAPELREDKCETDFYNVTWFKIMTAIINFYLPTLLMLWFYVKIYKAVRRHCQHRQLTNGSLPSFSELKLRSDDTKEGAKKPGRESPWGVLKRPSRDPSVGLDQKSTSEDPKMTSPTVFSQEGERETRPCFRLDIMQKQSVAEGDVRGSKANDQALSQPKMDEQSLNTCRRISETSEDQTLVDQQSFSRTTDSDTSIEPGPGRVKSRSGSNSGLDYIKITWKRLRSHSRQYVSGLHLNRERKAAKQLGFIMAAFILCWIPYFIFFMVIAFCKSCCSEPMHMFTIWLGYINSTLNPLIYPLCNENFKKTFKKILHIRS
Sequence of 5-hydroxytryptamine receptor 1B (P28222 whole entry): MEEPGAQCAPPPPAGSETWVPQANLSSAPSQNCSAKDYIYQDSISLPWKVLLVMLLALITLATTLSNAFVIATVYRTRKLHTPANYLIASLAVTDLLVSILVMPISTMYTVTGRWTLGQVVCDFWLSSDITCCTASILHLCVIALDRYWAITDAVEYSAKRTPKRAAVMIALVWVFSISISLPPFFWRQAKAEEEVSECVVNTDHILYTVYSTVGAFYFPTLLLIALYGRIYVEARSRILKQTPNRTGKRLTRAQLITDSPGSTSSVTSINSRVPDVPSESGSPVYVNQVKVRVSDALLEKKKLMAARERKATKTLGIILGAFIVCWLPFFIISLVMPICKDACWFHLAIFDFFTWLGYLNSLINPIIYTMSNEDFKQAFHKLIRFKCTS

SMILES	Ki [1] [µM]	Ki (Vasopressin V1b receptor) [µM]	Ki [2] [µM]	Ki [3] [µM]	Ki (Histamine H1 receptor) [µM]	Ki (D(1A) dopamine receptor) [µM]	Ki [4] [µM]	Ki (Vasopressin V2 receptor) [µM]	Ki [5] [µM]	Ki (Mu-type opioid receptor) [µM]	Ki [6] [µM]	Ki [7] [µM]	Ki [8] [µM]	Ki [9] [µM]	Ki [10] [µM]	Ki [11] [µM]	Ki [12] [µM]
C[C@@H]1O[C@@H](Oc2c(-c3ccc(O)c(O)c3)oc3cc(O)cc(=O)c-3c2O)[C@H](O)[C@H](O)[C@H]1O	> 10	> 10	> 10	> 10	> 10	> 10	> 10	> 10	> 10	> 10	> 10	> 10	> 10	> 10			
O=c1c(O)c(-c2ccc(O)c(O)c2)oc2cc(O)cc(O)c12 [2-(3,4-dihydroxyphenyl)-3,5,7-trihydroxy-chromone;hydrate]		> 10	> 10		> 10	> 10			> 10			> 10		> 10			

Results, then the compound that gave them:

Ki [1] [µM]	Ki (Vasopressin V1b receptor) [µM]	Ki [2] [µM]	Ki [3] [µM]	Ki (Histamine H1 receptor) [µM]	Ki (D(1A) dopamine receptor) [µM]	Ki [4] [µM]	Ki (Vasopressin V2 receptor) [µM]	Ki [5] [µM]	Ki (Mu-type opioid receptor) [µM]	Ki [6] [µM]	Ki [7] [µM]	Ki [8] [µM]	Ki [9] [µM]	Ki [10] [µM]	Ki [11] [µM]	Ki [12] [µM]	SMILES
> 10	> 10	> 10	> 10	> 10	> 10	> 10	> 10	> 10	> 10	> 10	> 10	> 10					O=c1cc(O)cc2oc(-c3ccc(O)c(O)c3)c(OC3OC(CO)C(O)C(O)C3O)c(O)c1-2 (centres undefined) [NSC_5318390]
> 10	> 10	> 10	> 10	> 10	0.596		> 10	> 10	> 10	> 10	> 10	> 10	> 10				CC(C)=CCC[C@]1(C)[C@@H](CC=C(C)C)C[C@]2(CC=C(C)C)C(=O)C(CC=C(C)C)C(=O)[C@]1(C(=O)C(C)C)C2=O (some centres undefined)
> 10	> 10	> 10	> 10	> 10	> 10	> 10	> 10	> 10	> 10	> 10	> 10	> 10	9.34				C[C@@H]1O[C@@H](OC[C@H]2O[C@@H](Oc3c(-c4ccc(O)c(O)c4)oc4cc(O)cc(O)c4c3=O)[C@H](O)[C@@H](O)[C@@H]2O)[C@H](O)[C@H](O)[C@H]1O [3-Rhamnoglucosylquercetin]
> 10	> 10	> 10	> 10	> 10	> 10		> 10		> 10			> 10	> 10	4.09	2.56	0.0365	O=c1cc(O)cc2oc(-c3ccc(O)c(-c4c(O)cc(O)c5c(=O)cc(-c6ccc(O)cc6)oc45)c3)cc(O)c1-2
